How the values were obtained:
[1] = tested on: C57BL/6 mice; assay: MSU-induced peritonitis in vivo (acute gout inflammation); parameters: species or system mouse; conditions: 60 mg/kg oral by gavage day 0, 1, 2, 3 mg MSU i.p., p<0.001 compared to MSU-injection group
Experimental: In FIG. 7-9, the animal experiments were conducted in accordance with the guidelines of the National Institutes of Health and approved by the Institutional Animal Care and Use Committee of National Ilan University. Male C57BL/6 mice were purchased from the National Laboratory Animal Center (Taipei, Taiwan). The animals were provided a chow diet and water ad libitum under conditions of 22-24° C., 40-70% relative humidity, and a 12 h light-dark cycle. Ginsenoside M1 (60 mg/kg body weight) was oral administered daily by gavage at day 0, 1 and 2. Acute gout inflammation was induced by intraperitoneal injection each mice with 3 mg of MSU in 0.5 mL of phosphate-buffered saline (PBS) at day 0 and day 2 1 h after Ginsenoside M1 administration. Control mice received 0.5 mL PBS without MSU (n=6). After 4 h, all mice were sacrificed using neck breaking, and the mice were intraperitoneally injected with 5 mL of PBS. The peritoneal fluid was then collected, and the volume of peritoneal fluid was about 4 mL from each mouse. The collected peritoneal exudate cells were washed and resuspended in PBS. The cells were stained with fluorescent antibodies against the neutrophils specific surface markers Ly-6G and CD45 (eBioscience, San Diego, Calif., USA) for 20 min at 37° C. in the dark, and the cell populations were sorted using a FACScan flow cytometer (Becton-Dickinson, San Jose, Calif.). The levels of IL-1β and IL-6 in the peritoneal fluid were measured by ELISA.
For ELISA assay, 50 μl of biotinylated antibody reagent and 50 μl of culture medium were added to an anti-mouse IL-1β or IL-6 precoated stripwell plate, and incubated at room temperature for 2 h. After washing the plate three times with washing buffer, 100 μl of diluted streptavidin-HRP (horseradish peroxidase) concentrate was added to each well and incubated at room temperature for 30 min. […] Following the addition of 100 μl of provided stop solution to each well to stop the reaction, the absorbance of the plate was measured by a microplate reader at a 450 nm wavelength.

[2] = tested on: human THP-1 macrophages; assay: MSU-induced IL-1β, TNF-α and IL-6 production in LPS-primed THP-1 macrophages (ELISA); assay type: cell-based; conditions: 1 μg/ml LPS 6 h, then 100 μg/ml MSU 24 h
Experimental: (§1) The mouse macrophages cell line J774A.1 and human monocytic leukemia cell line THP-1 was obtained from the American Type Culture Collection (Rockville, Md.) and cultured in RPMI 1640 medium supplemented with 10% heat-inactivated fetal bovine serum (FBS) and 2 mM L-glutamine (all from Life Technologies, Carlsbad, Calif.) at 37° C. in a 5% CO2 incubator. To induce monocyte-to-macrophage differentiation, THP-1 cells were cultured for 48 h in RPMI-1640 medium supplemented with 100 nM phorbol 12-myristate 13-acetate (Sigma-Aldrich).
(§2) In FIG. 4-6, THP-1 macrophages (1×10^5 cells/500 μl medium/well) were incubated for 6 h with or without 1 μg/ml LPS, then for 30 min with or without Ginsenoside M1, in the continued presence or absence of LPS, and then for 24 h with or without 100 μg/ml MSU. The levels of IL-1β in the culture medium were measured by ELISA.
For ELISA assay, 50 μl of biotinylated antibody reagent and 50 μl of culture medium were added to an anti-mouse IL-1β or IL-6 precoated stripwell plate, and incubated at room temperature for 2 h. After washing the plate three times with washing buffer, 100 μl of diluted streptavidin-HRP (horseradish peroxidase) concentrate was added to each well and incubated at room temperature for 30 min. The washing process was repeated; then 100 μl of a premixed tetramethylbenzidine substrate solution was added to each well and developed at room temperature in the dark for 30 min. Following the addition of 100 μl of provided stop solution to each well to stop the reaction, the absorbance of the plate was measured by a microplate reader at a 450 nm wavelength.
as §2, with “To confirm the anti-inflammatory activities of Ginsenoside M1, human” for “In FIG. 4-6,”, “macrophages” for “macrophages (1×10^5 cells/500 μl medium/well)”

[3] = tested on: LPS-activated J774A.1 macrophages; assay: LPS-induced NLRP3 and proIL-1β expression in J774A.1 macrophages (Western blot); assay type: cell-based, mouse; conditions: 1 μg/ml LPS 6 h, FIG. 3
Experimental: as §1
In FIG. 3, J774A.1 macrophages (2×10^6 cells/2 ml medium/dish) were incubated for 30 min with or without Ginsenoside M1, then for 6 h with or without 1 μg/ml LPS (from Escherichia coli 0111:B4, purchased from Sigma, St. Louis, Mo.) in the continued presence or absence of Ginsenoside M1. The levels of NLRP3 and proIL-1β in the cell lysates were measured by Western blot. […]
J774A.1 macrophages were incubated for 30 min with or without Ginsenoside M1, then for 6 h with or without 1 μg/ml LPS in the continued presence or absence of Ginsenoside M1. The levels of NLRP3 and proIL-1β in the cell lysates were measured by Western blot.

[4] = tested on: mouse J774A.1 macrophages; assay: MSU-induced IL-1β production in LPS-primed J774A.1 macrophages (ELISA); assay type: cell-based; conditions: 1 μg/ml LPS 30 min, then 100 μg/ml MSU 24 h; FIG. 1; p<0.001 compared to MSU alone
Experimental: as §1
(§3) In FIGS. 1 and 2, J774A.1 macrophages (1×10^5 cells/500 μl medium/well) were incubated for 30 min with or without Ginsenoside M1, then for 30 min with or without 1 μg/ml LPS (from Escherichia coli 0111:B4, purchased from Sigma, St. Louis, Mo.) in the continued presence or absence of Ginsenoside M1, and then for 24 h with or without 100 μg/ml MSU or 100 μg/ml CPPD (all purchased from InvivoGen, San Diego, Calif.). The levels of IL-1β in the culture medium were measured by ELISA.
(§4) For ELISA assay, 50 μl of biotinylated antibody reagent and 50 μl of culture medium were added to an anti-mouse IL-1β or IL-6 precoated stripwell plate, and incubated at room temperature for 2 h. […] Following the addition of 100 μl of provided stop solution to each well to stop the reaction, the absorbance of the plate was measured by a microplate reader at a 450 nm wavelength. […]

[5] = tested on: mouse J774A.1 macrophages; assay: CPPD-induced IL-1β production in LPS-primed J774A.1 macrophages (ELISA); assay type: cell-based; conditions: 1 μg/ml LPS 30 min, then 100 μg/ml CPPD 24 h; FIG. 2; p<0.001 compared to CPPD alone
Experimental: as §1, §3, §4

SMILES: CC(C)=CCC[C@](C)(O[C@@H]1OC(CO)[C@@H](O)[C@@H](O)C1O)[C@H]1CC[C@]2(C)C1[C@H](O)CC1[C@@]3(C)CC[C@H](O)C(C)(C)C3CC[C@]12C (stereo partly drawn) [Ginsenoside M1, 20-O-β-D-glucopyranosyl-20(S)-protopanaxadiol]
- MSU-induced IL-1β production in the murine peritoneal fluid ([1]; FIG. 7): significantly reduced
- MSU-induced IL-6 production in the murine peritoneal fluid ([1]; FIG. 8): significantly reduced
- levels of MSU-induced Ly-6G+ neutrophils in the peritoneal fluid ([1]; flow cytometry, FIG. 9): significantly reduces
- IL-1β production in the culture medium ([2]; FIG. 4, p<0.05 and p<0.001 compared to MSU alone): reduced
- TNF-α production in the culture medium ([2]; FIG. 5, p<0.05 and p<0.001 compared to MSU alone): reduced
- IL-6 production in the culture medium ([2]; FIG. 6, p<0.001 compared to MSU alone): reduced
- level of NLRP3 in the cell lysates [3]: reduced
- level of proIL-1β in the cell lysates [3]: reduced
- IL-1β secretion in the culture medium [4]: reduced
- IL-1β secretion in the culture medium [5]: reduced
